Measured values taken from patent publication US20240384350A1, “METHODS OF TREATING CANCER WITH KINASE INHIBITORS” (BOARD OF REGENTS, THE UNIVERSITY OF TEXAS SYSTEM, priority 2021, published 2024).

Key:
Assay in all cases: Ba/F3 drug screening, Cell Titer Glo, IC50 Mut/WT
Format in all cases: cell-based
EGFR L861R = target: T1, EGFR L861R (Homo sapiens, UniProt P00533, L861R); conditions: Classical-Like, 72 hours
T1 construct: expressed in transfected cells; host or cells: Ba/F3 cells, retroviral pBabe-Puro vector (vector made by GeneScript from EGFR WT)

EGFR S784F = target: T2, EGFR S784F (Homo sapiens, UniProt P00533, S784F); conditions: Classical-Like, 72 hours
T2 construct: expressed in transfected cells; host or cells: Ba/F3 cells, retroviral pBabe-Puro vector (vector made by GeneScript from EGFR WT)

EGFR L747P = target: T3, EGFR L747P (Homo sapiens, UniProt P00533, L747P)
T3 construct: expressed in transfected cells; host or cells: Ba/F3

EGFR L858R/V834L = target: T4, EGFR L858R/V834L (Homo sapiens, UniProt P00533, L858R/V834L); conditions: Classical-Like, 72 hours
T4 construct: expressed in transfected cells; host or cells: Ba/F3 cells, retroviral pBabe-Puro vector

EGFR L858R = target: T5, EGFR L858R (Homo sapiens, UniProt P00533, L858R); conditions: Classical-Like, 72 hours
T5 construct: expressed in transfected cells; host or cells: Ba/F3 cells, retroviral pBabe-Puro vector

EGFR I740dupIPVAK = tested on: EGFR I740dupIPVAK
EGFR G719A/R776C = target: T6, EGFR G719A/R776C (Homo sapiens, UniProt P00533, G719A/R776C)
T6 construct: expressed in transfected cells; host or cells: Ba/F3

EGFR S768I V774M = target: T7, EGFR S768I V774M (Homo sapiens, UniProt P00533, S768I/V774M)
T7 construct: host or cells: Ba/F3

EGFR Ex19del T790M L718V = target: T8, EGFR Ex19del T790M L718V (Homo sapiens, UniProt P00533, DEL746-750/L718V/T790M); conditions: T790M-like-3S, 72 hours
T8 construct: expressed in transfected cells; host or cells: Ba/F3

EGFR Ex19del G724S = target: T9, EGFR Ex19del G724S (Homo sapiens, UniProt P00533, DEL746-750/G724S)
T9 construct: expressed in transfected cells; host or cells: Ba/F3

EGFR G719A L861Q = target: T10, EGFR G719A L861Q (Homo sapiens, UniProt P00533, G719A/L861Q)
T10 construct: expressed in transfected cells; host or cells: Ba/F3

EGFR S768I/V769L = target: T11, EGFR S768I/V769L (Homo sapiens, UniProt P00533, S768I/V769L)
T11 construct: host or cells: Ba/F3

EGFR K754E = target: T12, EGFR K754E (Homo sapiens, UniProt P00533, K754E); conditions: Classical-Like, 72 hours
T12 construct: expressed in transfected cells; host or cells: Ba/F3 cells, retroviral pBabe-Puro vector

EGFR G724S T790M = target: T13, EGFR G724S T790M (Homo sapiens, UniProt P00533, G724S/T790M); conditions: T790M-like-3R, 72 hours
T13 construct: expressed in transfected cells; host or cells: Ba/F3

EGFR S768dupSVD V769M = target: T14, EGFR S768dupSVD V769M (Homo sapiens, UniProt P00533, INS768MDS/V769M); conditions: Ex20, 72 hours
T14 construct: expressed in transfected cells; host or cells: Ba/F3 cells, retroviral pBabe-Puro vector (vector made by GeneScript from EGFR S768dupSVD, c.2305G > A)

EGFR L858R/T790M/C797S = target: T15, EGFR L858R/T790M/C797S (Homo sapiens, UniProt P00533, C797S/L858R/T790M); conditions: T790M-like-3R, 72 hours
T15 construct: expressed in transfected cells; host or cells: Ba/F3

EGFR Ex19del L718Q = target: T16, EGFR Ex19del L718Q (Homo sapiens, UniProt P00533, DEL746-750/L718Q)
T16 construct: expressed in transfected cells; host or cells: Ba/F3

EGFR T725M = target: T17, EGFR T725M (Homo sapiens, UniProt P00533, T725M); conditions: Classical-Like, 72 hours
T17 construct: expressed in transfected cells; host or cells: Ba/F3 cells, retroviral pBabe-Puro vector (vector made by GeneScript from EGFR WT)

EGFR L747S = target: T18, EGFR L747S (Homo sapiens, UniProt P00533, L747S)
T18 construct: expressed in transfected cells; host or cells: Ba/F3

EGFR E709_T710del insD = target: T19, EGFR E709_T710del insD (Homo sapiens, UniProt P00533, DEL709-709/T710D)
T19 construct: expressed in transfected cells; host or cells: Ba/F3

EGFR L858R/T790M = target: T20, EGFR L858R/T790M (Homo sapiens, UniProt P00533, L858R/T790M); conditions: T790M-like-3S, 72 hours
T20 construct: expressed in transfected cells; host or cells: Ba/F3

EGFR L858R/L792H = target: T21, EGFR L858R/L792H (Homo sapiens, UniProt P00533, L792H/L858R)
T21 construct: expressed in transfected cells; host or cells: Ba/F3

EGFR N771dupN G724S = target: T22, EGFR N771dupN G724S (Homo sapiens, UniProt P00533, DUP771-771/G724S); conditions: Ex20, 72 hours
T22 construct: expressed in transfected cells; host or cells: Ba/F3 cells, retroviral pBabe-Puro vector (vector made by GeneScript from EGFR G724S, c.2313_2314insAAC)

EGFR Ex19del = target: T23, EGFR Ex19del (Homo sapiens, UniProt P00533, DEL746-750); conditions: Classical-Like, 72 hours
T23 construct: expressed in transfected cells; host or cells: Ba/F3 cells, retroviral pBabe-Puro vector

In the case of `C=CC(=O)Nc1cc(Nc2nccc(-n3cc(CN(C)C)c(-c4ccccc4)n3)n2)c(OC)cc1N1CCOCC1` [Lazertinib], the “ratio of IC50 for cells with mutant EGFR to IC50 for cells with wildtype EGFR (Mut/WT)” value (“ratio of IC50 for cells with mutant EGFR” for short) (EGFR L861R) is reported as 0.05091, the “ratio of IC50 for cells with mutant EGFR” value (EGFR S784F) is reported as 0.245 and the “ratio of the IC50 value for cells with a PACC EGFR mutation to the IC50 value for cells with wildtype EGFR” value (“ratio of the IC50 value for cells” below) (EGFR L747P; Ba/F3 cells, EGFR L747P (PACC), Mut/WT) is reported as 2.92. For the same molecule, the “ratio of IC50 for cells with mutant EGFR” value (EGFR L858R/V834L) was 0.003768, the “ratio of IC50 for cells with mutant EGFR” value (EGFR L858R) was 0.03702 and the “ratio of the IC50 value for cells” value (EGFR I740dupIPVAK; Ba/F3 cells, EGFR I740dupIPVAK (PACC), Mut/WT) was 0.2883. For the same molecule, the “ratio of the IC50 value for cells” value (EGFR G719A/R776C; Ba/F3 cells, EGFR G719A/R776C (PACC), Mut/WT) was 0.5224, the “ratio of the IC50 value for cells” value (EGFR S768I V774M; Ba/F3 cells, EGFR S768I V774M (PACC), Mut/WT) was 0.7678 and the “ratio of IC50 for cells with mutant EGFR” value (EGFR Ex19del T790M L718V) was 0.4667. The “ratio of the IC50 value for cells” value (EGFR Ex19del G724S; Ba/F3 cells, EGFR Ex19del G724S (PACC), Mut/WT) was 1.782, the “ratio of the IC50 value for cells” value (EGFR G719A L861Q; Ba/F3 cells, EGFR G719A L861Q (PACC), Mut/WT) was 1.406 and the “ratio of the IC50 value for cells” value (EGFR S768I/V769L; Ba/F3 cells, EGFR S768I/V769L (PACC), Mut/WT) was 0.666. The “ratio of IC50 for cells with mutant EGFR” value (EGFR K754E) was 0.1385, the “ratio of IC50 for cells with mutant EGFR” value (EGFR G724S T790M) was 26.17 and the “ratio of IC50 for cells with mutant EGFR” value (EGFR S768dupSVD V769M) was 2.831. The “ratio of IC50 for cells with mutant EGFR” value (EGFR L858R/T790M/C797S) was 23.29, the “ratio of the IC50 value for cells” value (EGFR Ex19del L718Q; Ba/F3 cells, EGFR Ex19del L718Q (PACC), Mut/WT) was 0.08238 and the “ratio of IC50 for cells with mutant EGFR” value (EGFR T725M) was 0.004466. For the same molecule, the “ratio of the IC50 value for cells” value (EGFR L747S; Ba/F3 cells, EGFR L747S (PACC), Mut/WT) was 1.007, the “ratio of the IC50 value for cells” value (EGFR E709_T710del insD; Ba/F3 cells, EGFR E709_T710del insD (PACC), Mut/WT) was 0.5663 and the “ratio of IC50 for cells with mutant EGFR” value (EGFR L858R/T790M) was 0.0336. For the same molecule, the “ratio of the IC50 value for cells” value (EGFR L858R/L792H; Ba/F3 cells, EGFR L858R/L792H (PACC), Mut/WT) was 0.1416.
In the case of `CNC(=O)CN1CCC(Oc2cc3c(Nc4cccc(Cl)c4F)ncnc3cc2OC)CC1` [Sapatinib], the “ratio of IC50 for cells with mutant EGFR” value (EGFR L861R) is reported as 0.002811, the “ratio of IC50 for cells with mutant EGFR” value (EGFR S784F) is reported as 0.08508 and the “ratio of IC50 for cells with mutant EGFR” value (EGFR L747P; PACC, L747P, Ba/F3, 72 hours) is reported as 0.03076. The “ratio of IC50 for cells with mutant EGFR” value (EGFR L858R/V834L) was 0.001889, the “ratio of IC50 for cells with mutant EGFR” value (EGFR L858R) was 0.0006817 and the “ratio of IC50 for cells with mutant EGFR” value (EGFR I740dupIPVAK; PACC, I740dupIPVAK, Ba/F3, 72 hours) was 0.008351. The “ratio of IC50 for cells with mutant EGFR” value (EGFR G719A/R776C; PACC, G719A/R776C, Ba/F3, 72 hours) was 0.0489, the “ratio of IC50 for cells with mutant EGFR” value (EGFR S768I V774M; PACC, S768I V774M, Ba/F3, 72 hours) was 0.2648 and the “ratio of IC50 for cells with mutant EGFR” value (EGFR Ex19del G724S; PACC, Ex19del G724S, Ba/F3, 72 hours) was 27.39. The “ratio of IC50 for cells with mutant EGFR” value (EGFR G719A L861Q; PACC, G719A L861Q, Ba/F3, 72 hours) was 0.04615, the “ratio of IC50 for cells with mutant EGFR” value (EGFR S768I/V769L; PACC, S768I/V769L, Ba/F3, 72 hours) was 0.2596 and the “ratio of IC50 for cells with mutant EGFR” value (EGFR K754E) was 0.00307. For the same molecule, the “ratio of IC50 for cells with mutant EGFR” value (EGFR G724S T790M) was 48.62, the “ratio of IC50 for cells with mutant EGFR” value (EGFR S768dupSVD V769M) was 1.596 and the “ratio of IC50 for cells with mutant EGFR” value (EGFR N771dupN G724S) was 1.103. For the same molecule, the “ratio of IC50 for cells with mutant EGFR” value (EGFR L858R/T790M/C797S) was 66.82, the “ratio of IC50 for cells with mutant EGFR” value (EGFR Ex19del) was 0.0005535 and the “ratio of IC50 for cells with mutant EGFR” value (EGFR Ex19del L718Q; PACC, Ex19del L718Q, Ba/F3, 72 hours) was 0.7162. The “ratio of IC50 for cells with mutant EGFR” value (EGFR T725M) was 0.00667, the “ratio of IC50 for cells with mutant EGFR” value (EGFR L747S; PACC, L747S, Ba/F3, 72 hours) was 0.005189 and the “ratio of IC50 for cells with mutant EGFR” value (EGFR E709_T710del insD; PACC, E709_T710del insD, Ba/F3, 72 hours) was 1.754. The “ratio of IC50 for cells with mutant EGFR” value (EGFR L858R/T790M) was 38.86 and the “ratio of IC50 for cells with mutant EGFR” value (EGFR L858R/L792H; PACC, L858R/L792H, Ba/F3, 72 hours) was 0.01237.
